What all share (test): NCI anticancer screen, dose series, 48 h
The test system of assay [1] is NCI-H23 lung.
Assay [2] relates to SF-268 CNS.
Assay [3] deals with SNB-19 CNS.
The test system of assay [4] is HCT-15 colon.
In assay [5] the test system is SK-MEL-5 melanoma.
The test system of assay [6] is RXF 393 renal.
The subject of assay [7] is TK-10 renal.
Assay [8] has as its system RPMI-8226 leukemia.
Assay [9] relates to SNB-75 CNS.
For assay [10], the system named is MOLT-4 leukemia.

The text below walks through data of PubChem BioAssay (NCI).

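Results reflect a 48-hour exposure of cells in 96-well plates to compound at five concentrations. The concentration for 50% growth inhibition is given as GI50. The concentration for full growth arrest is given as TGI.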

`COc1ccc(C2SC(N)=Nc3c2c(C)nn3C(=O)c2ccncc2)cc1OC` (configuration not stated): the TGI in assay [1], in assay [2], in [3], in assay [4], in assay [5] and in [6] was more than 10 µM in each case. The TGI in [7], in assay [8], in assay [9] and in [10] was more than 10 µM in each case.

As to `CCOC(=O)C1=CN(C)C=C(C(=O)OCC)C1c1cc(Br)c(OCC)c(OC)c1`, the GI50 in assay [1] is more than 100 µM; in assay [2], more than 100 µM; in [3] it was more than 100 µM; in assay [4], more than 100 µM; in [5], 49.2 µM; in assay [6], 8.74 µM. Moreover, the GI50 in assay [7] was more than 100 µM; in assay [8], 25.8 µM; in assay [9] it was 20.8 µM; in assay [10] it was more than 100 µM. The TGI in assay [1], in assay [2], in [3], in [4], in assay [5] and in assay [6] was more than 100 µM in each case. Also, the TGI in assay [7], in assay [8], in [9] and in assay [10] was more than 100 µM in each case.

In the case of `CC(=O)Nc1ccc(S(=O)(=O)N2C(=O)CCC2C(=O)Nc2ccc(Br)cc2)cc1` (configuration not stated), the GI50 was 1.83 µM in assay [1]; 2.76 µM in assay [2]; 2.38 µM in assay [3]; 1.72 µM in assay [4]; 1.56 µM in [5]; 2.31 µM in assay [6]. Also, the GI50 in [7] is 4.49 µM; in assay [8] it was 0.806 µM; in assay [9], 1.81 µM; in [10], 2.2 µM. The TGI in [1] is 16.6 µM; in assay [2], 21.9 µM; in assay [3] it was 20.2 µM; in assay [4] it was 13 µM; in assay [5], 4.87 µM; in assay [6], 6.28 µM. Also, the TGI stood at 15.4 µM in assay [7], 4.46 µM in assay [8], 6.24 µM in assay [9] and 10.3 µM in [10].

In the case of `COc1ccc(OC)c2c1[nH]c(=O)c1c3ccccc3cn21`, the GI50 in [1] is 1.49 µM; in [2] it was 1.42 µM; in assay [3] it was 1.64 µM; in assay [4], 0.693 µM; in [5] it was 1.53 µM; in [6], 1.5 µM. Further, the GI50 in assay [7] was 2.01 µM; in [8], 1.07 µM; in assay [9] it was 1.44 µM; in assay [10] it was 0.581 µM. Moreover, the TGI in assay [1] turned out to be 3.04 µM; in assay [2], 3.04 µM; in [3], 3.4 µM; in assay [4], 2.42 µM; in assay [5], 2.93 µM; in [6] it was 3.01 µM. Also, the TGI in [7] is 3.76 µM; in [8], 3.21 µM; in [9], 2.83 µM; in assay [10], 2.3 µM.

`Cc1cn2c(=O)c3ncn(C4OC(CO)C(O)C4O)c3n(C)c2n1` (configuration not stated): the TGI in assay [1], in [2], in assay [3], in assay [4], in [5] and in assay [6] was more than 100 µM throughout. The TGI in assay [7], in assay [8], in assay [9] and in [10] was more than 100 µM in each case.

With `Cc1cc(Cl)cc(OCCn2cc(F)cn2)c1-c1nc(N)nc2c1CN(C(=O)NCC(C)(F)F)C2`, the GI50 in assay [1] is 0.273 µM; in [2], more than 55.4 µM; in assay [3], 0.477 µM; in assay [4], 0.386 µM; in assay [5], 0.179 µM; in [7], 0.144 µM. The GI50 in assay [10] is 0.112 µM. Also, the TGI in assay [1], in [2], in assay [3], in [4], in assay [5] and in assay [6] was more than 100 µM each time. Moreover, the TGI in assay [7], in [8], in assay [9] and in assay [10] was more than 100 µM in each case.
